Results as given in PubChem BioAssay (NCI).
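Growth conditions: 96-well plates. Treatment: test compound, 48 hours, 5 concentrations. Analysis: linear interpolation between bracketing concentrations; unreached endpoints set to highest concentration. GI50 marks 50% less growth. TGI is the concentration that stops growth completely.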

What was measured:
Experiment in all cases: DTP human tumour cell line panel, 48 h
OVCAR-8 ovarian = test system: OVCAR-8 ovarian
COLO 205 colon = test system: COLO 205 colon
SF-539 CNS = test system: SF-539 CNS
HS 578T breast = test system: HS 578T breast
SF-268 CNS = test system: SF-268 CNS
U251 CNS = test system: U251 CNS
M14 melanoma = test system: M14 melanoma
OVCAR-4 ovarian = test system: OVCAR-4 ovarian
NCI-H226 lung = test system: NCI-H226 lung
MALME-3M melanoma = test system: MALME-3M melanoma

SMILES | GI50 (OVCAR-8 ovarian) [µM] | TGI (OVCAR-8 ovarian) [µM] | GI50 (COLO 205 colon) [µM] | TGI (COLO 205 colon) [µM] | GI50 (SF-539 CNS) [µM] | TGI (SF-539 CNS) [µM] | GI50 (HS 578T breast) [µM] | TGI (HS 578T breast) [µM] | GI50 (SF-268 CNS) [µM] | TGI (SF-268 CNS) [µM] | GI50 (U251 CNS) [µM] | TGI (U251 CNS) [µM] | GI50 (M14 melanoma) [µM] | TGI (M14 melanoma) [µM] | GI50 (OVCAR-4 ovarian) [µM] | TGI (OVCAR-4 ovarian) [µM] | GI50 (NCI-H226 lung) [µM] | TGI (NCI-H226 lung) [µM] | GI50 (MALME-3M melanoma) [µM] | TGI (MALME-3M melanoma) [µM]
CNC(=O)c1cc2c(Oc3ccc(NC(=S)NC(=O)Cc4ccccc4)cc3F)ccnc2cc1OC | > 100 | > 100 | 5.37 | > 100 | 0.549 | > 30.3 | 1.29 | 8.05 | 4.51 | > 100 | > 100 | > 100 | > 24.3 | > 100 | 5.44 | > 100 | 5.36 | > 100 | 8.85 | > 100
CC(C)(C)OC(=O)NCCCCCCCCCCn1c2c(c3ccccc3c1=O)C(=O)c1ccccc1-2 | 89.9 | > 100 | > 100 | > 100 | 43.1 | > 100 | 24.6 | > 100 | 21.9 | > 100 | 29 | > 100 | > 100 | > 100 | > 100 | > 100 | > 100 | > 100 | > 100 | > 100
Cc1ncc(-c2ccnc(Nc3ccc(S(C)(=O)=O)cc3)n2)n1C(C)C | 1.33 | > 10 | 0.532 | 2.37 | 0.56 | 2.71 | 0.977 | 5.33 | 1.67 | 6.62 | 1.11 | > 10 | 1.6 | 5.04 | 1.87 | > 8.73 | 0.902 | > 8.47 | 2.56 | 6.04
O=C(Nc1cccc(-n2cc(-c3ccncc3)c(-c3ccc(O)c(Cl)c3)n2)c1)c1ccc(Cl)c(Cl)c1 | 5.06 | > 100 | 62.2 | > 100 | 3.47 | > 100 | 2.82 | > 100 | 36.9 | > 100 | 4.03 | 34.2 | 5.26 | 54.6 | 9.9 | > 100 | 8.06 | > 100 | 3.58 | 21
CN(C)c1ccc(C(=C2C=CC(=[N+](C)C)C=C2)c2ccccc2Cl)cc1 | 0.306 | 1.66 | 0.17 | 0.312 | 0.259 | 0.951 | 0.207 | 2.78 | 0.379 | 1.41 | 0.127 | 1.14 | 0.274 | 0.942 | 0.36 | 1.6 | 0.43 | 2 | 0.266 | 1.05
Nc1nc(-c2cc(-c3cccc4ccccc34)nc(N)n2)cc(-c2cccc3ccccc23)n1 |  | > 100 |  | > 100 |  | > 100 |  | > 100 |  | > 100 |  | > 100 |  | > 100 |  | > 100 |  | > 100 |  | > 100
COc1ccc(/C(=N/O)c2cc(OC)c(OC)c(OC)c2)c(OC)c1N | 9.87 | > 100 | 3 | 13.5 | 2.98 | > 100 | 4.74 | > 100 | 14.6 | > 100 | 5.65 | > 100 | 2.7 | > 100 | 8.18 | > 100 | > 100 | > 100 | 4.22 | > 100
CCc1ncnc2cc(OCC3CO3)c(OC)cc12 (centres undefined) |  | 14.3 |  | 21.8 |  | 25.2 |  | 42 |  | > 100 |  | > 100 |  | 23.8 |  | 24.7 |  | > 100 |  | 42
COc1cc(C2C3=C(COC3=O)Nc3cc4c(cc32)OCO4)cc2c1OCO2 (centres undefined) | 0.102 | > 100 | 0.0735 | 0.172 | 0.0394 | > 64.5 | 0.0414 | > 100 | 0.0834 | > 100 | 0.111 | > 100 | 0.03 | 0.0878 | 0.0982 | > 100 | 0.0827 |  | > 100 | > 100
Cc1cc(S(N)(=O)=O)c(S/C(=N\Nc2ccc([N+](=O)[O-])cc2)c2ccc3ccccc3c2)cc1Cl | 14 | > 100 | 84 | > 100 | 4.1 | 18.7 | 2.19 | 8.86 | 10.1 | 44.4 | 19.7 | 59.4 | 44.1 | > 100 | 61.1 | > 100 | 18.4 | 38.3 | 11.7 | 25.7
CCN1C(=O)N(CC)C2C1NN=c1s/c(=C\c3cccc([N+](=O)[O-])c3)c(=O)n12 (centres undefined) | 0.172 | > 100 | 0.0663 | 0.538 | 0.0397 | 0.396 | 0.0502 | > 100 | 0.293 | > 100 | 0.0542 | > 100 | 0.0533 | > 100 | 0.567 | > 100 | 8.25 | > 100 | 0.0812 | > 100
C[C@]12CC[C@@H]3c4ccc(O)cc4CC[C@H]3[C@@H]1CC[C@@H]2NS(=O)(=O)c1ccc2ccccc2c1 | 3.16 | 11.8 | 1.94 | 3.37 | 2.11 | 6.1 | 2.21 | 7.14 | 3.68 | 18.4 | 3.6 | 15.4 | 3.2 | 10.5 | 1.98 | 9.36 | 2.98 | 11.5 | 2.56 | 8.06
Cn1c(C(C)(C)OC(=O)Oc2ccccc2)cnc1[N+](=O)[O-] |  | > 100 |  | > 100 |  | > 100 |  | > 100 |  | > 100 |  | > 100 |  | > 100 |  | > 100 |  | > 100 |  | > 100
Nc1ncnc2nn(C3OC(CO)C(O)C3O)nc12 (centres undefined) |  | > 100 |  | 15.8 |  | 58.5 |  | > 100 |  | > 100 |  | > 81.6 |  | > 62.8 |  | > 100 |  | 40.5 |  | > 100
